Each structure is given as a SMILES string.

We go through 26 molecules from patent US6395735B2, “Pharmaceutical compounds” (Eli Lilly and Company, priority 1997, dated 2002).

Holding throughout (format): cell-based
Test [1] addresses T1, human m4 receptors (Homo sapiens, UniProt P08173).
T1 construct: expressed in transfected cells; host or cells: CHO K1 cells
The test can be described thus: Stimulation of cyclic AMP production in pertussis toxin-treated CHO-m4 cells. To be noted: forskolin present. How it is done:
Cyclic AMP Accumulation in Pertussis Toxin-Treated CHO m4 Cells. CHO K1 cells transfected with human m4 receptors were grown to near confluency in T-150 flasks using Dulbecco's Modified Eagle Medium (DMEM) containing 10% fetal bovine serum. Cells were detached with 0.05% trypsin, 0.53 mM EDTA, and were suspended in medium containing 100 ng/ml pertussis toxin. Cells were plated at 30,000 cells per well into 96 well plates. Eighteen to twenty hours later the medium was removed and the cells were washed with serum-bee medium. Attached cells were incubated at 37 C for one hour after addition of […] of serum free DMEM containing 1 mM 3-isobutyl-1-methylxanthine and 1 mM forskolin plus or minus drugs being tested. Incubations were terminated with […] per well of serum free DMEM containing 0.3% triton-X-100. After stopping incubations the plates were allowed to sit for 20 minutes to extract cAMP and samples were then diluted 2.5-fold and were assayed using the scintillation proximity assay of Amersham (Arlington Heights, Ill.).
Representative results from the M4 assay are as follows
Stimulation of cyclic AMP production in CHO-m4 cells.

For test [2], the target named is T2, human m1 receptor (Homo sapiens, UniProt P11229).
T2 construct: expressed in transfected cells; host or cells: CHO (Chinese hamster) cells
T2 sequence (P11229 1-460): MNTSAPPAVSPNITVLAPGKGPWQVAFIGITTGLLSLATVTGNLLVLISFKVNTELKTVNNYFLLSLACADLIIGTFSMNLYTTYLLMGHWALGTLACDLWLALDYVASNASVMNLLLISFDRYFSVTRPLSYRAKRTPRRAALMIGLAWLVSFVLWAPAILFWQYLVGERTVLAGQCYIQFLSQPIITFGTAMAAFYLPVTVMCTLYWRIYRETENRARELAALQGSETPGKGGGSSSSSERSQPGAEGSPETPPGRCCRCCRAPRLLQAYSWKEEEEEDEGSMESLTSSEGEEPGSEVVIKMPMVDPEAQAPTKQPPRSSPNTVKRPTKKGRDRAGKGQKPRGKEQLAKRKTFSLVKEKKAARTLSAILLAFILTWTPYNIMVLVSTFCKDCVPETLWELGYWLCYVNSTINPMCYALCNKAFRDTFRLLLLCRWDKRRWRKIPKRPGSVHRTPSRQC
Nature of the test: m1 primary assay: arachidonic acid release in CHO-m1 cells. How it is done:
CHO (Chinese hamster transfected with the human m1 receptor (CHO-m1) were grown to confluency in flasks using Dulbecco's Modified Eagle Medium (DMEM) containing 10% fetal bovine serum. Cells were detached with 0.05% trypsin, 0.53 mM EDTA. Cells were collected after centrifugation in a Beckman centrifuge at 1000 rpm for 10 minutes, diluted with culture medium (400,000 cells/ml) Aarachidonic acid was added to the cell solution at a 1:2000 ratio of a 1 mCi/ml stock and cells were plated at 40,000 cells per well into 96 well plates and incubated for 18 to 24 hours at 37 C and 5% CO2. Following the incubation, the medium was removed and the cells were washed with D-ME medium containing 2 mg/mL of fatty acid free BSA (250 L/well). The test compound of interest was diluted in D-ME-BSA and added to each well (150 L/well), incubated for 120 minutes at 37 C in 5% CO2. 80 µL of supernatant was transferred to Wallac 96 well plates containing 110 µL/well of Supermax scintillation cocktail at pH 9.0. Plates were counted in a Wallae microbeta counter.
Representative results from the m1 primary assay are as follows: […]

Test [3] addresses T3, A9L-m1 (Homo sapiens, UniProt P11229).
T3 sequence (P11229 1-460): T2 sequence (P11229 1-460)
Nature of the test: m1 secondary assay: PI stimulation in A9L-m1. To be noted: for Emax: A9L-m1, relative to carbachol, read-out: Pl stim. A9L-m1 % Max of carbachol; for EC50: A9L-m1, read-out: ED-50 Pl stim A9L-m1, nm.

T1 sequence (P08173 whole entry): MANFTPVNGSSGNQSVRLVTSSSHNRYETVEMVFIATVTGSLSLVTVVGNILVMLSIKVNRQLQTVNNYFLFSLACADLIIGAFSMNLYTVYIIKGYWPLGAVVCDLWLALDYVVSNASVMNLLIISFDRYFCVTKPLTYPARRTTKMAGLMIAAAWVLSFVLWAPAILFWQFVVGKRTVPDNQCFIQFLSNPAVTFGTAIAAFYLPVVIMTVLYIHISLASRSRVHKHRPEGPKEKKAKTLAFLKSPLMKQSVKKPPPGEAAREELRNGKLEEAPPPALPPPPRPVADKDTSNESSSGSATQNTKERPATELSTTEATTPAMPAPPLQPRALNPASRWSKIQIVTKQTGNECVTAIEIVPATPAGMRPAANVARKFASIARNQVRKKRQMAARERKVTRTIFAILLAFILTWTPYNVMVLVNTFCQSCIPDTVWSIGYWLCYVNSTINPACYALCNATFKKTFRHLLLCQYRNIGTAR

Turning to `CN(C)C=Nc1ccc2c(c1)[C@@H](NS(=O)(=O)c1ccc(Cl)c(Cl)c1)[C@H](O)C2` [Compound 72], the “% Maximum Stimulation Compared to Oxotremorine-M” value in test [1] worked out at 4%.
Take `CN(C)C=Nc1ccc2c(c1)[C@@H](NC(=O)c1cccnc1Cl)[C@H](O)C2` [Compound 73]: the “% Maximum Stimulation Compared to Oxotremorine-M” value in test [1] is on record as 11%.
The same measure, in the same setting: the same measure for `CN(C)C=Nc1ccc2c(c1)[C@@H](NC(=O)c1ccc(Cl)nc1)[C@H](O)C2` [Compound 74]: 8%; for `CN(C)C=Nc1ccc2c(c1)[C@@H](NC(=O)c1ccc(C(F)(F)F)cc1)[C@H](O)C2` [Compound 75]: 6%; for `CC(=Nc1ccc2c(c1)[C@@H](NC(=O)c1ccc(Cl)c(Cl)c1)[C@H](O)C2)N(C)C` [Compound 76]: 130%.
Regarding `O=C(N[C@@H]1c2cc(N=CN3CCCCC3)ccc2C[C@H]1O)c1ccc(Cl)c(Cl)c1` [Compound 77], the “% Maximum Stimulation Compared to Oxotremorine-M” value in test [1] is reported as 214%.
Turning to `O=C(N[C@@H]1c2cc(N=CN3CCCCC3)ccc2C[C@H]1O)c1cccc(Cl)c1Cl` [Compound 88], the “% Maximum Stimulation Compared to Oxotremorine-M” value in test [1] came out at 52%.
Same read-out and setting: the same measure for `O=C(N[C@@H]1c2cc(N=CN3CCCCC3)ccc2C[C@H]1O)c1cc(Cl)cc(Cl)c1` [Compound 97]: 36%.
Same read-out and setting: the same measure for `O=C(N[C@@H]1c2cc(N=CN3CCCCC3)ccc2C[C@H]1O)c1cc(F)cc(F)c1` [Compound 98]: 73%.
Consider `CN(C)/C=N/c1ccc2c(c1)[C@@H](NC(=O)c1ccc(Cl)cc1)[C@H](O)C2` [Compound 118], for which the “Max. % activity @ 5 μM” value in test [2] was found to be 57.4%.
Still for that read-out and setting: for `O=C(N[C@@H]1c2cc(/N=C/N3CCOCC3)ccc2C[C@H]1O)c1ccc(-c2ccccc2)cc1` [Compound 119] the value was 66.4%; for `O=C(N[C@@H]1c2cc(/N=C/N3CCCC3)ccc2C[C@H]1O)c1ccc(-c2ccccc2)cc1` [Compound 120], 92.5%.
Still for that read-out and setting: the same measure for `O=C(N[C@@H]1c2cc(/N=C/N3CCCC3)ccc2C[C@H]1O)c1ccc(Cl)c(Cl)c1` [Compound 121]: 45.4%; for `O=C(NC1c2cc(/N=C/N3CCCC3)ccc2C[C@H]1O)c1ccc(Cl)cc1` (some centres unmarked) [Compound 122]: 80.9%; for `O=C(NC1c2cc(/N=C/N3CCCC3)ccc2CC1O)c1cccc(C(F)(F)F)c1` (centres unmarked) [Compound 123]: 76.7%.
Still for that read-out and setting: the same measure for `C/C(=N\c1ccc2c(c1)C(NC(=O)c1cccc(C(F)(F)F)c1)C(O)C2)N(C)C` (centres unmarked) [Compound 124]: 82.2%.
With `CN1CCC/C1=N\c1ccc2c(c1)C(NC(=O)c1ccc(-c3ccccc3)cc1)[C@H](O)C2` (some centres unmarked) [Compound 125], the “Max. % activity @ 5 μM” value in test [2] is given as 114.0%.
`CN(C)/C=N/c1ccc2c(c1)C(NC(=O)c1cccc(C(F)(F)F)c1)C(O)C2.Cl` (centres unmarked) [Compound 126]: the “Max. % activity @ 5 μM” value in test [2] worked out at 102.2%.
The same measure, in the same setting: for `CN(C)/C=N/c1ccc2c(c1)C(NC(=O)c1ccc(Cl)c(Cl)c1)C(O)C2.Cl` (centres unmarked) [Compound 127] the value was 69.8%.
For `C/C(=N\c1ccc2c(c1)C(NC(=O)c1ccc(Cl)c(Cl)c1)C(O)C2)N(C)C` (centres unmarked) [Compound 128], in test [3], the Emax came out at 59.2% and the EC50 was 0.0953 µM.
On the same counts, the results for `Cc1cc(C(=O)NC2c3cc(/N=C/N4CCCC4)ccc3C[C@@H]2O)ccc1Br` (some centres unmarked) [Compound 129] are 42% and 0.0413 µM.
On the same counts, the results for `Cc1ccc(C(=O)NC2c3cc(/N=C/N4CCCC4)ccc3C[C@@H]2O)cc1I` (some centres unmarked) [Compound 130] are 64% and 0.0092 µM.
Turning to `O=C(NC1c2cc(/N=C/N3CCCC3)ccc2C[C@@H]1O)c1ccc(F)c(Br)c1` (some centres unmarked) [Compound 131], in test [3], the Emax came to 70.5% and the EC50 came out at 0.0436 µM.
On to `Cc1ccc(C(=O)NC2c3cc(/N=C/N4CCCC4)ccc3C[C@@H]2O)cc1Br` (some centres unmarked) [Compound 132], for which, in test [3], the Emax was found to be 59% and the EC50 was 0.183 µM.
On the same counts, the results for `O=C(NC1c2cc(/N=C/N3CCCC3)ccc2C[C@@H]1O)c1ccc(F)c(Cl)c1` (some centres unmarked) [Compound 133] are 40% and 0.19 µM.
On to `O=C(NC1c2cc(/N=C/N3CCCC3)ccc2C[C@H]1O)c1ccc(-c2ccccc2)cc1` (some centres unmarked) [Compound 134], for which the “Max. % activity @ 5 μM” value in test [2] is listed as 75.9%.
